Test results: patent publication US8501214B2, “Hydrophilic foam and pharmaceutical dosage form employing the same” (priority 2007, dated 2013)
Read-outs that look alike come from different tables or passages of the source.

Legend:
[1] = Solvent/water partition coefficient analysis (1-Octanol/water); type: physicochemical; settings: for logP: logarithm of the ratio of 1-Octanol to water, read-out: Partition coefficient [log Poct/wat]
Experimental: Solvent/water partition coefficient analysis was conducted to determine the solvent/water partition coefficient. Various solvent were used in the experiments; yet, only the 1-Octanol/water partition coefficients of the active agents described herein above are summarized in Table 4. The 1-Octanol/water partition coefficient is the logarithm of the ratio of 1-Octanol to water and can be expressed as [log Poct/wat].

[2] = Transmembrane penetration analysis; type: in vitro ADME, swine; settings: for True Value Concentration (completely penetrated active agent): 0.25 mL gel admixed with 5.5 mL saline; for Penetration Ratio: relative to true value
From the text: The solution was admixed with the aquagel or O/W gel described hereinabove to afford an active agent-containing gel. In the comparative example, commercially available vaseline ointment was admixed with heptane to form vaseline gel, and the solution was also admixed with the vaseline gel.
In the transmembrane penetration analysis, swine endometrium was used as the membrane. The swine endometrium of suitable size was disposed between an upper container and a lower container. The lower container was filled with physiologic saline and debubbled. […] The pipetted sample was analyzed with HPLC-PDA system.
In addition, about 0.25 mL of each gel was admixed with about 5.5 mL of saline. The admixture was extracted, filtered through a filter film (0.45 μm) and then analyzes by HPLE-PDA. The results (referred to as the “true value” hereinafter) thus obtained were regarded as the amount of a completely penetrated active agent present in the lower container.

[3] = Working Example 4 (O/W gel), 21 hr
[4] = Working Example 4 (O/W gel), 24 hr
[5] = Working Example 4 (O/W gel), 26 hr
[6] = Comparative Example D (vaseline gel)
[7] = Working Example 3 (aqua gel), 1 hr
[8] = Working Example 3 (aqua gel), 3 hr
[9] = Working Example 3 (aqua gel), 5 hr
[10] = Working Example 3 (aqua gel), 21 hr
[11] = Working Example 3 (aqua gel), 24 hr

**Q.** For `O=C(O)c1cc(O)c(O)c(O)c1` [Gallic acid], which 1-Octanol/H2O ratio [1] is on record?
**A.** 1.859

**Q.** What about the logP [1] of the same compound?
**A.** 0.27

**Q.** Which “True Value Concentration (completely penetrated active agent)” value (shortened to “True Value Concentration”) ([2]; Working Example 4 (O/W gel)) does the source give for `Clc1ccc(COC(Cn2ccnc2)c2ccc(Cl)cc2Cl)c(Cl)c1` (centres unmarked) [Miconazole nitrate(MIC), Miconazole nitrate] here?
**A.** 0.1401 mg/mL

**Q.** And the “Concentration in lower container” value [2, 3]?
**A.** 7060 ng/mL

**Q.** What about the “Concentration in lower container” value [2, 4] of the same compound?
**A.** 60660 ng/mL

**Q.** What about the “Concentration in lower container” value [2, 5] of the same compound?
**A.** 82720 ng/mL

**Q.** Which results are given for `CC(C)[C@]12O[C@H]1[C@@H]1O[C@]13[C@]1(O[C@H]1C[C@H]1C4=C(CC[C@@]13C)C(=O)OC4)[C@@H]2O` [Triptolide]?
**A.** 1-Octanol/H2O ratio [1]: 54.13; logP [1]: 1.73

**Q.** Which logP ([1]; 1-octanol/water) does the source give for `Cc1ncc([N+](=O)[O-])n1CCO` [Metronidazole (MTZ), Metronidazole] here?
**A.** 0.05

**Q.** And the “True Value Concentration” value [2, 6]?
**A.** 0.1563 mg/mL

**Q.** What about the “Concentration in lower container” value ([2]; Comparative Example D (vaseline gel), 3 hr) of the same compound?
**A.** 460 ng/mL

**Q.** What about the “Concentration in lower container” value ([2]; Comparative Example D (vaseline gel), 5 hr) of the same compound?
**A.** 590 ng/mL

**Q.** And the “Concentration in lower container” value ([2]; Comparative Example D (vaseline gel), 10.5 hr)?
**A.** 960 ng/mL

**Q.** What about the “Concentration in lower container” value ([2]; Comparative Example D (vaseline gel), 24 hr) of the same compound?
**A.** 1740 ng/mL

**Q.** And the “Concentration in lower container” value ([2]; Comparative Example D (vaseline gel), 26 hr)?
**A.** 1430 ng/mL

**Q.** What about the “True Value Concentration” value ([2]; Working Example 3 (aqua gel)) of the same compound?
**A.** 0.09568 mg/mL

**Q.** And the “Concentration in lower container” value [2, 7]?
**A.** 13200 ng/mL

**Q.** And the “Concentration in lower container” value [2, 8]?
**A.** 31080 ng/mL

**Q.** And the “Concentration in lower container” value [2, 9]?
**A.** 395900 ng/mL

**Q.** What about the “Concentration in lower container” value [2, 10] of the same compound?
**A.** 635800 ng/mL

**Q.** And the “Concentration in lower container” value [2, 11]?
**A.** 587100 ng/mL

**Q.** And the “Concentration in lower container” value ([2]; Working Example 3 (aqua gel), 26 hr)?
**A.** 595100 ng/mL

**Q.** And the “True Value Concentration” value ([2]; Working Example 4 (O/W gel))?
**A.** 0.1433 mg/mL

**Q.** And the “Concentration in lower container” value [2, 3]?
**A.** 6510 ng/mL

**Q.** What about the “Concentration in lower container” value [2, 4] of the same compound?
**A.** 61670 ng/mL

**Q.** What about the “Concentration in lower container” value [2, 5] of the same compound?
**A.** 81070 ng/mL

**Q.** Which results are given for `Nc1nc2c(ncn2COCCO)c(=O)[nH]1` [Acyclovir (ACY), Acyclovir]?
**A.** logP ([1]; 1-octanol/water): -1.58; True Value Concentration (completely penetrated active agent) [2, 6]: 0.1865 mg/mL; True Value Concentration (completely penetrated active agent) ([2]; Working Example 3 (aqua gel)): 0.09979 mg/mL; Concentration in lower container [2, 7]: 5970 ng/mL; Concentration in lower container [2, 8]: 21420 ng/mL; Concentration in lower container [2, 9]: 29640 ng/mL; Concentration in lower container [2, 10]: 62890 ng/mL; Concentration in lower container [2, 11]: 58630 ng/mL; True Value Concentration (completely penetrated active agent) ([2]; Working Example 4 (O/W gel)): 0.1375 mg/mL; Concentration in lower container [2, 3]: 2510 ng/mL; Concentration in lower container [2, 4]: 60500 ng/mL; Concentration in lower container [2, 5]: 83400 ng/mL

**Q.** For `C[C@@H]1[C@H](O)[C@@H](C)/C=C/C=C/CC/C=C/C=C/C=C/C=C/C(O[C@H]2O[C@H](C)[C@@H](O)[C@H](N)[C@@H]2O)CC2O[C@](O)(CC(O)C(O)CCC(O)CC(O)CC(O)CC(=O)O[C@H]1C)CC(O)C2C(=O)O` (some centres unmarked) [Nystatin (NYS), Nystatin], which 1-Octanol/H2O ratio [1] is on record?
**A.** 1.98

**Q.** And the “Partition coefficient [log Poct/wat]” value [1]?
**A.** 0.30

**Q.** What about the “True Value Concentration” value ([2]; Working Example 4 (O/W gel)) of the same compound?
**A.** 0.06448 mg/mL

**Q.** And the “Concentration in lower container” value [2, 3]?
**A.** 1930 ng/mL

**Q.** What about the “Penetration Ratio” value [2, 3] of the same compound?
**A.** 2.99%

**Q.** What about the “Concentration in lower container” value [2, 4] of the same compound?
**A.** 20720 ng/mL

**Q.** And the “Penetration Ratio” value [2, 4]?
**A.** 32.14%

**Q.** What about the “Concentration in lower container” value [2, 5] of the same compound?
**A.** 30070 ng/mL

**Q.** And the “Penetration Ratio” value [2, 5]?
**A.** 46.64%

**Q.** Which results are given for `O=c1ccc2ccc3occc3c2o1` [Isopsoralen]?
**A.** 1-Octanol/H2O ratio [1]: 306.9; logP [1]: 2.49

**Q.** For `O=c1cc(-c2ccccc2)oc2cc(O)c(O)c(O)c12` [Baicalein], which 1-Octanol/H2O ratio [1] is on record?
**A.** Insoluble in water
